Results: paper PMC4222822, “Discovery and Characterization of a Potent and Selective Inhibitor of Aedes aegypti Inward Rectifier Potassium Channels” (PLoS ONE, 2014)
Where two headings read alike, the source gives them in different places.

Target: AeKir1 (Aedes aegypti, UniProt L0EQS9)
Assay: Tl+ flux assay in T-REx-HEK293-AeKir1 cells
Assay type: cell-based
Protocol: Tl^+ flux assays were performed essentially as described previously, [18], [19]. Briefly, stably transfected T-Rex-HEK-293 cells expressing AeKir1 channels were cultured overnight in 384-well plates (20,000 cells/20 µL/well black-walled, clear-bottomed BD PureCoat amine-coated plates (BD, Bedford, MA) with a plating media containing DMEM, 10% dialyzed FBS and 1 µg/mL tetracycline. The next day, the cell culture medium was replaced with a dye-loading solution containing assay buffer (Hanks Balanced Salt Solution with 20 mM HEPES, pH 7.3), 0.01% (w/v) Pluronic F-127 (Life Technologies, Carlsbad, CA), and 1.2 µM of the thallium-sensitive dye Thallos-AM (TEFlabs, Austin, TX). Following 1 hr incubation at room temperature, the dye-loading solution was washed from the plates and replaced with 20 µL/well of assay buffer. The plates were transferred to a Hamamatsu Functional Drug Screening System 6000 (FDSS6000; Hamamatsu, Hamamatsu (or Bridgewater, NJ), Japan) where 20 µL/well of test compounds in assay buffer (as prepared below) were added and allowed to incubate with the cells for 20 min. After the incubation period, a baseline recording was collected at 1 Hz for 10 s (excitation 470±20 nm, emission 540±30 nm) followed by a Tl^+ stimulus buffer addition (10 µL/well) and data collection for an additional 4 min. The Tl^+ stimulus buffer contains in (mM) 125 NaHCO3, 1.8 CaSO4, 1 MgSO4, 5 glucose, 12 Tl2SO4, 10 HEPES, pH 7.4. For Tl^+ flux assays on the mammalian channels Kir2.x, Kir4.1 and Kir6.2/SUR1 expressing cells, the Tl^+ stimulus buffer contained 1.8 mM Tl2SO4. Also, Tl^+ flux assays on Kir3.1/3.2/mGlu8 expressing cell, required addition of an EC80 concentration of glutamate (Sigma-Aldrich, St. Louis, MO) with the Tl^+ stimulus buffer. The test compounds were transferred to daughter polypropylene 384-well plates (Greiner Bio-One, Monroe, NC) using an Echo555 liquid handler (Labcyte, Sunnyvale, CA), and then diluted into assay buffer to generate a 2X stock in 0.6% DMSO (0.3% final). For Tl^+ flux assays on Kir6.2/SUR1 expressing cells, test compounds were diluted in assay buffer containing diazoxide (250 µM final) to induce channel activation. Concentration-response curves (CRCs) were generated by screening compounds at 3-fold dilution series in 4-point (1 µM–30 µM) or 11-point (1 nM–30 µM) CRCs. Tl^+ flux data were analyzed as previously described, [21], [22] using a combination of Excel (Microsoft Corp, Redmond, WA) with XLfit add-in (IDBS, Guildford, Surrey, UK) and OriginPro (OriginLab, Northampton, MA) software. Raw data were opened in Excel and each data point in a given trace was divided by the first data point from that trace (static ratio) followed by subtraction of data points from control traces generated in the presence of vehicle controls. The slope of the fluorescence increase beginning 5 s after Tl^+ addition and ending 15 s after Tl^+ addition was calculated. To compare the effect of DMSO on AeKir1-mediated Tl^+ flux, a one-way ANOVA was performed with a Tukey's multiple comparison test. Prism software (GraphPad Software) was used to generate CRC from Tl^+ flux. Half-inhibition concentration (IC50) values were calculated from fits using a four parameter logistic equation.

Sequence of AeKir1 (L0EQS9 entry or part of it): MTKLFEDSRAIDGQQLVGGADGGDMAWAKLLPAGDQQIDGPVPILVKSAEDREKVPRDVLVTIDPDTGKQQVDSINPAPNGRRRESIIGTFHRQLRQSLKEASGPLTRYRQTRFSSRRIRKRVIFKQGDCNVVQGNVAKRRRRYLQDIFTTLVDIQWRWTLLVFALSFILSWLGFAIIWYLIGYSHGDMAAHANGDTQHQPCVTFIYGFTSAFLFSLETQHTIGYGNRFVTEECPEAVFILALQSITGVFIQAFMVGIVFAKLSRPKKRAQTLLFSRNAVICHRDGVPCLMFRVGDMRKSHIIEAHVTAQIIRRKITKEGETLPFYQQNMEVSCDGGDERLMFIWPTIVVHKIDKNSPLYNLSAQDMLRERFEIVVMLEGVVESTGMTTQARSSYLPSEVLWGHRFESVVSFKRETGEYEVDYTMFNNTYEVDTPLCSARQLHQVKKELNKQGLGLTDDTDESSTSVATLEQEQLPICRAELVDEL

In the case of CCC(=O)N1c2ccc(S(=O)(=O)Nc3cccc(OC)c3)cc2CC1C (centres unmarked) [VU625, N-(3-methoxyphenyl)-2-methyl-1-propionylindoline-5-sulfonamide], the IC50 (11-point CRCs, 95% CI: 0.25–0.39 µM, read-out: IC50 (AeKir1, Tl+ flux)) is reported as 320 nM, the IC50 (Fig. 2C, 95% CI: 254.4–390.2 nM, n = 4 independent experiments in triplicate, read-out: IC50 (AeKir1, Tl+ flux)) is reported as 315 nM and the IC50 (Table 2, southern amide SAR, 11-point CRCs on AeKir1 in Tl+ flux, triplicate on two separate days, read-out: IC50±SEM) is reported as 360 ± 20 nM. The IC50 (Table S3, left-hand sulfonamide SAR, 11-point CRCs on AeKir1 in Tl+ flux, triplicate on two separate days, read-out: IC50) was 856 nM and the “Hill coefficient (nH)” value (Tl+ flux CRC, 95% CI: 0.8–1.2) was 0.98.
